Consider 1 molecule from patent US4022895A, “Substituted phenylglycylcephalosporins” (SmithKline Corporation, priority 1975, dated 1977).

Test [1] has as its system S.aureus SK 23390. As to the kind of experiment: In vitro antibacterial activity (MIC). Particulars: Staphylococcus aureus, SK23390; S.aureus SK 23390, in vitro; read-out: MIC. In kind it is cell-based. The method, then: (§1) The compounds of this invention have antibacterial activity against Gram-positive and Gram-negative organisms. Minimum inhibitory concentrations (MIC's) ranged from 0.4 to >200 μg/ml in in vitro testing.

The test system of test [2] is Shig. paradys HH 112. As to the kind of experiment: In vitro antibacterial activity (MIC). Particulars: Shig. paradys HH 112, in vitro; read-out: MIC. The class given is cell-based. The method, then: as §1
Test [3] has as its system E.coli SK 12140. Put plainly: In vitro antibacterial activity (MIC). In kind it is cell-based. The conditions noted are these: Escherichia coli, SK12140; E.coli SK 12140, in vitro; read-out: MIC. The method, then: as §1
Test [4] deals with Entero. aerog. ATCC 13048. As to the kind of experiment: In vitro antibacterial activity (MIC). The conditions noted are these: Entero. aerog. ATCC 13048, in vitro; read-out: MIC. In kind it is cell-based. The method, then: as §1
Test [5] concerns Strep. faecalis HH 34358. Put plainly: In vitro antibacterial activity (MIC). The class given is cell-based. The conditions noted are these: Enterococcus faecalis, HH34358; Strep. faecalis HH 34358, in vitro. The method, then: as §1
Test [6] concerns S.aureus Villaluz. As to the kind of experiment: In vitro antibacterial activity (MIC). The class given is cell-based. Particulars: Staphylococcus aureus. The method, then: as §1
In test [7] the test system is Sal. paratyphl ATCC 12176. Put plainly: In vitro antibacterial activity (MIC). In kind it is cell-based. The method, then:
as §1

In test [8] the test system is S.aureus HH 127. Put plainly: In vitro antibacterial activity (MIC). Particulars: Staphylococcus aureus, HH127; S.aureus HH 127, in vitro; read-out: MIC. The class given is cell-based. The method, then: as §1
Test [9] deals with E. coli HH 33779. Put plainly: In vitro antibacterial activity (MIC). In kind it is cell-based. Particulars: Escherichia coli, HH33779; E. coli HH 33779, in vitro; read-out: MIC. The method, then: as §1
In test [10] the test system is Kleb. pneumo. SK 4200. Put plainly: In vitro antibacterial activity (MIC). The conditions noted are these: Kleb. pneumo. SK 4200, in vitro; read-out: MIC. The class given is cell-based. The method, then: as §1
Test [11] deals with Kleb. pneumo. SK 1200. Put plainly: In vitro antibacterial activity (MIC). The class given is cell-based. Particulars: Kleb. pneumo. SK 1200, in vitro; read-out: MIC. The method, then: as §1
The test system of test [12] is Proteus morgani 179. Put plainly: In vitro antibacterial activity (MIC). In kind it is cell-based. Particulars: Proteus morgani 179, in vitro; read-out: MIC. The method, then: as §1
The test system of test [13] is Klebs.pneumo. 4200. Put plainly: In vivo activity (ED50) against Klebs.pneumo. 4200. The conditions noted are these: read-out: ED50.
Test [14] concerns E.coli 12140. Put plainly: In vivo activity (ED50) against E.coli 12140.

SMILES strings stand for the structures. Values after ≈ are worked out from the molar mass of the structure shown. Where two headings read alike, the source gives them in different places.

As usually defined, the MIC is the lowest concentration that inhibits growth of the organism. As usually defined, the ED50 is the midpoint of the dose-response relation. With `COC(=O)CNc1ccc([C@@H](N)C(=O)NC2C(=O)N3C(C(=O)O)=C(CSc4nnc(C)s4)CSC23)cc1` (stereo partly drawn) [Compound No. 96146, 7-[D-α-Amino-α-(4'-carbomethoxymethylaminophenyl)-acetamido]-3-(5-methyl-1,3,4-thiadiazol-2-ylthiomethyl)-3-cephem-4-carboxylic acid], the MIC in [1] worked out at 6.3 µg/mL (≈ 11.2 µM); in test [2] it was 25 µg/mL (≈ 44.3 µM); in test [3], 50 µg/mL (≈ 88.5 µM); in [4] it was 100 µg/mL (≈ 177 µM); in [5], 25 µg/mL (≈ 44.3 µM); in [6], 50 µg/mL (≈ 88.5 µM). For the same molecule, the MIC in test [7] is 25 µg/mL (≈ 44.3 µM); in test [8] it was 6.3 µg/mL (≈ 11.2 µM); in [9] it was 100 µg/mL (≈ 177 µM); in test [10], 50 µg/mL (≈ 88.5 µM); in test [11], 50 µg/mL (≈ 88.5 µM); in test [12], more than 200 µg/mL. Moreover, the ED50 in test [13] (po, Klebs.pneumo. 4200, p.o.) is 17 mg/kg; in [13] (sc, Klebs.pneumo. 4200, s.c.), 2.9 mg/kg; in [14] (Escherichia coli, 12140, po, E.coli 12140, p.o.), 16 mg/kg; in test [14] (Escherichia coli, 12140, sc, E.coli 12140, s.c.), 4.7 mg/kg.
